According to US20140142170A1, “COMPOSITION AND METHOD FOR INFLUENCING ENERGY METABOLISM AND TREATING METABOLIC AND OTHER DISORDERS” (SIRTUIN VALLEY OY, priority 2010, published 2014):
“Also recorded” adds a separate entry of the source.

Legend:
SIRT1 [1] = assay: SIRT1 protein expression, immunoblot and densitometry in 3T3 L1 preadipocytes; assay type: cell-based; conditions: 3T3 L1 preadipocytes, 60 μM, 24 hours; for SIRT1 protein expression, Derivative vs. GR24: derivative compared to GR24 (=100%)
Experimental: (§1) 3T3L1 cells were purchased from American Type Culture Collection (Manassas, Va., USA) and cultured in DMEM media containing 4.5 g/l glucose supplemented with 10% fetal bovine serum (Hyclone), 2 mM L-glutamine (Gibco), 100 U/ml penicillin, and 100 μg/ml streptomycin (Gibco). The cells were cultured at 37° C. in a humidified atmosphere with 10% CO2.
(§2) The 3T3L1 cells were plated at 6×10^4 cells/well in 12 well plates and incubated at 37° C. in a humidified atmosphere with 10% CO2. The media was removed after 24 hours and the cells were treated with 60 μM GR24 individually and in combination with 60 resveratrol and 60 μM pinosylvin, and incubated for 24 hours at 37° C. in a humidified atmosphere with 10% CO2. The media was removed, cells were washed with PBS, and cell lysates were collected on ice. Proteins were extracted using RIPA buffer along with protease and phosphatase inhibitors. Lysates were centrifuged for 30 min at high speed; supernatant was collected and stored at […] until further analysis. The vehicle controls were 3T3 L1 cells without any treatment with drugs or other compounds. The drugs or compounds that were used in all the experiments were dissolved or diluted in dimethylsulfoxide (DMSO) as diluent. In all experiments, the controls were treated with the same volume of DMSO as was used to dissolve drugs or compounds in compound-treated cells to show and ensure that the actual change in protein expression in different treatments was due solely to the compounds or combination of compounds and not to the DMSO.
(§3) Protein concentrations were measured using a BCA (bicinchoninic acid) protein assay kit (Cat.#23225; Pierce, Rockford, Ill.). Twenty (20) μg/lane of total cellular protein samples containing NuPAGE LDS sample buffer (Invitrogen) and reducing agent were loaded into 4-12% NuPAGE Bis-Tris gels (Invitrogen), subjected to gel electrophoresis, and transferred to polyvinylidene fluoride membranes (Amersham). For SIRT1 proteins, membranes were blocked in 0.05% TBS-Tween with 3% milk for 1 hour, incubated overnight at +4° C. with SIRT1 primary antibodies (Cat.#07-131, Millipore). For phospho-AMPKα and AMPKα proteins, blocking was done for 1 hour in 0.1% TBS-Tween with 5% milk. The membranes were incubated overnight at +4° C. with phospho-AMPKα (Cat. #2535, Cell Signaling) and AMPKα (Cat.#2532, Cell Signaling) primary antibodies. Horseradish peroxidase-conjugated anti-rabbit antibodies (Cat. #NA934V GE Health Care, Amersham, U.K) were used as secondary antibodies. For α-tubulin (loading control), membranes were blocked in 0.05% PBS-Tween with 3% milk for 1 hour, incubated with α-tubulin (Cat.# B-5-1-2, Sigma) primary antibodies for 1 hour at room temperature and horseradish peroxidase-conjugated anti-mouse (Cat. # NA 931V GE Health Care, Amersham, U.K.) IgG antibodies were used as secondary antibodies.
(§4) The membranes were developed using chemiluminescence (ECL plus, GE Health Care), and images were captured in an Image Quant RT-ECL machine (version 1.0.1; GE Health Care). Densitometry and quantification of the bands were done by applying Quantity One software (Bio-Rad). The expression levels of the proteins were normalized to α-tubulin protein levels.
3T3L1 cells were purchased from American Type Culture Collection (Manassas, Va., USA) and cultured in DMEM media containing 4.5 g/l glucose supplemented with 10% fetal bovine serum (Hyclone), 2 mM L-glutamine (Gibco) and 100 U/ml penicillin, 100 μg/ml streptomycin (Gibco). The cells were cultured at 37° C. in a humidified atmosphere with 10% CO2. 3T3L1 preadipocytes were plated at 1×10^5 cells/well in 6 well plates and incubated at 37° C. in a humidified atmosphere with 10% CO2. […] In all experiments, the controls were treated with the same volume of DMSO as was used to dissolve compounds in compound-treated cells to show and ensure that the actual change in protein expression in different treatments was only due to the compounds DMSO. […]

PGC-1α = PGC-1α protein expression, immunoblot and densitometry in 3T3 L1 preadipocytes; assay type: cell-based; conditions: 60 μM, 24 hours; for PGC-1α protein expression, Derivative vs. GR24: derivative compared to GR24 (=100%)
Experimental: as §1, with “CO2. […]” for “CO2.”
as §3, §4
PGC-1α as an indicator of SIRT1 activity: PGC-1α has been extensively described as a master regulator of mitochondrial biogenesis. […] When SIRT1 protein expression is induced, it interacts with and deacetylates PGC-1α in an NAD-dependent manner. Thus SIRT1 acts as a modulator of PGC-1a (Rodgers J T et al, Nature 2005). The effects of resveratrol, a nonselective SIRT1 activator, were associated with an induction of genes for oxidative phosphorylation and mitochondrial biogenesis, and were largely explained by a resveratrol-mediated decrease in PGC-1α acetylation and an increase in PGC-1α activity (Lagouge M, Cell 2006). Therefore, PGC-1α protein expression serves as an indicator of SIRT1 activity.
3T3L1 cells were purchased from American Type Culture Collection (Manassas, Va., USA) and cultured in DMEM media containing 4.5 g/l glucose supplemented with 10% fetal bovine serum (Hyclone), 2 mM L-glutamine (Gibco) and 100 U/ml penicillin, 100 μg/ml streptomycin (Gibco). The cells were cultured at 37° C. in a humidified atmosphere with 10% CO2. 3T3L1 preadipocytes were plated at 1×10^5 cells/well in 6 well plates and incubated at 37° C. in a humidified atmosphere with 10% CO2. The media was removed after 24 hours and the cells were treated with 60 μM GR24 or with 60 μM 1A, 1B, 5A, 5B, 6A, or 7A and incubated for 24 hours at 37° C. in a humidified atmosphere with 10% CO2. In all experiments, the controls were treated with the same volume of DMSO as was used to dissolve compounds in compound-treated cells to show and ensure that the actual change in protein expression in different treatments was only due to the compounds […]. The media was removed, cells were washed with PBS and cell lysates were collected on ice. Proteins were extracted using RIPA buffer along with protease and phosphatase inhibitors. Lysates were centrifuged for 30 min at high speed; supernatant was collected and stored at −70° C. until further analysis.

phospho-AMPK = phospho-AMPK expression / AMPK activation, immunoblot in 3T3 L1 preadipocytes; assay type: cell-based; conditions: 3T3 L1 preadipocytes, 60 μM, 24 hours
Experimental: as §1
as §2, with “The media was removed after 24 hours and the cells were treated with 60 μM GR24 individually and in combination with 60 resveratrol and 60 μM pinosylvin, and incubated for 24 hours at 37° C. in a humidified atmosphere with 10% CO2.” left out
as §3, §4

phospho-ACC = phospho-ACC expression, immunoblot in 3T3 L1 preadipocytes; assay type: cell-based; conditions: 3T3 L1 preadipocytes, 60 μM, 24 hours
[2] = system: mitochondria of 3T3L1 preadipocytes; assay: Mitochondrial staining with MitoTracker green, confocal microscopy; assay type: cell-based; conditions: 60 μM, 24 hours
Experimental: The 3T3L1 preadipocytes were plated onto Ibidi u-slide 8 well plates at 1.6×10^4 cells/well and incubated at 37° C. in a humidified atmosphere with 10% CO2. The media was removed after 24 hours, the cells were treated with 60 μM GR24 and incubated for 24 hours at 37° C. in a humidified atmosphere with 10% CO2. After 24 hours of treatment, staining of mitochondria was done using 200 nM MitoTracker Mitochondrion-Selective Probes (Green FM probes Cat.#M7514, Invitrogen) according to the manufacturer's instructions. The cells were observed using a confocal microscope and images were taken at 40× oil immersion.
Preadipocytes were treated with DMSO (Vehicle control) (FIG. 5A), 60 μM resveratrol (FIG. 5B) or 60 μM strigolactone analog GR24 (FIG. 5C) for 24 hours. Next, preadipocytes were stained with MitoTracker green and observed under a confocal microscope at 40× oil immersion. […] The white oval shaped structures are nucleus and the white thread-like structures around the nucleus in the cytoplasm are mitochondria. When compared to the control, there was an increase in mitochondrial biogenesis represented by elongated mitochondria, and an increase in mitochondrial activation represented by the intensity of fluorescence, in cells treated with resveratrol and GR24. […] Thus, GR24 enhances both biogenesis and activity of mitochondria, which is necessary to generate ATP.

SIRT1 [3] = target: T1, SIRT1 (Mus musculus, UniProt Q923E4); conditions: mice; cited from earlier work
T1 construct: host or cells: mice (in vivo)
T1 sequence (Q923E4 1-737): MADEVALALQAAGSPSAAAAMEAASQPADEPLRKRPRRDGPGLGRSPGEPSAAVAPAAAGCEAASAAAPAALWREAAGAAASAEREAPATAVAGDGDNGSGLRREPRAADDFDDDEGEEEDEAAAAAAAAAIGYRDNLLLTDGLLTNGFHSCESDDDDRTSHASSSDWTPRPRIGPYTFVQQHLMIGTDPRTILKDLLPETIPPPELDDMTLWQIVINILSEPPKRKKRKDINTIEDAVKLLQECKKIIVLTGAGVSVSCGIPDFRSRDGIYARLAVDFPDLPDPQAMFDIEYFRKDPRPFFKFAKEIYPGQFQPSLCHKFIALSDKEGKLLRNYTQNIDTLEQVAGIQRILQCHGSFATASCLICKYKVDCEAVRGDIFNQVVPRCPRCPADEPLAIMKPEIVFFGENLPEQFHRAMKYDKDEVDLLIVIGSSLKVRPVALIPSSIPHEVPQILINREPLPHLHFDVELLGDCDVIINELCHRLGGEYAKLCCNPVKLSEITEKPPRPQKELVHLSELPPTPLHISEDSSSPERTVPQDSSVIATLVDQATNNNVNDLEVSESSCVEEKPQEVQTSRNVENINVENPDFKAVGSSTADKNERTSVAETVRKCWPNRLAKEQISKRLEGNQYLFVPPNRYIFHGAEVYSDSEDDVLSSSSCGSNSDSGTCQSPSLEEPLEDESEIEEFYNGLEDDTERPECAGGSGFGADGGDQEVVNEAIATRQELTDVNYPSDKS

| Structure (SMILES) | SIRT1 protein expression compared to control (100%) (SIRT1 [1]) | SIRT1 protein expression, Derivative vs. GR24 (SIRT1 [1]) | PGC-1α protein expression compared to control (100%) (PGC-1α) | PGC-1α protein expression, Derivative vs. GR24 (PGC-1α) | phospho-AMPK expression compared to control (phospho-AMPK) | phospho-ACC expression (phosphorylation of ACC) compared to control (phospho-ACC) | mitochondrial activation (intensity of fluorescence) compared to control [2] | mitochondrial biogenesis (elongated mitochondria) compared to control [2] | SIRT1 activity (SIRT1 [3]) | genes responsible for mitochondrial biogenesis (SIRT1 [3]) |
| --- | --- | --- | --- | --- | --- | --- | --- | --- | --- | --- |
| CCC1=C[C@H](O/C=C2/C(=O)O[C@@H]3c4ccccc4C[C@H]23)OC1=O [Compound 1A] | 1A 186% | +11% | 1A 186% | +11% | – | – | – | – | – | – |
| CCC1=C[C@H](O/C=C2/C(=O)O[C@H]3c4ccccc4C[C@@H]23)OC1=O [Compound 1B] | 1B 215% | +31% | 1B 215% | +31% | – | – | – | – | – | – |
| CC1=C[C@H](O/C=C2/C(=O)O[C@H]3c4c(C)cccc4C[C@@H]23)OC1=O [Compound 5B] | 5B 327% | +48% | 5B 327% | +48% | – | – | – | – | – | – |
| COc1cccc2c1[C@H]1OC(=O)/C(=C/O[C@H]3C=C(C)C(=O)O3)[C@H]1C2 [Compound 6A] | 6A 206% | +38% | 6A 206% | +38% | – | – | – | – | – | – |
| COc1ccc(C)c2c1C[C@@H]1/C(=C\O[C@H]3C=C(C)C(=O)O3)C(=O)O[C@H]21 [Compound 7A] | 7A 218% | +30% | 7A 218% | +30% | – | – | – | – | – | – |
| Oc1ccc(/C=C/c2cc(O)cc(O)c2)cc1 [resveratrol, 3,5,4″-trans-trihydroxystilbene] | – | – | – | – | significant increase; also recorded: increased | no change | increase | increase | increases | stimulates |
